Source: patent publication US20230348462A1, “IMIDAZO[4,5-C]QUINOLINE COMPOUNDS AND THEIR USE AS ATM KINASE INHIBITORS” (Deutsches Krebsforschungszentrum, priority 2020, published 2023)

Tests used:
human ATM = human ATM (Homo sapiens (Human), UniProt Q13315); experiment: Enzymatic ATM assay (RBC FRET enzyme assay); type: biochemical; conditions: substrate p53, 5-point dilution starting at 10 μM
Method: The inhibitory activity on the isolated ATM kinase was determined by a commercial supplier (Reaction Biology Corp., PA, US) using an activity based FRET assay. Compounds were therefore first pre-incubated with human ATM before substrate (p53) and ATP were added to initiate the phosphorylation reaction. After a given time, the kinase reaction was stopped and the amount of phosphorylated substrate was quantified using standard FRET detection methods. […] Detailed assay conditions and parameters can be requested from the commercial supplier.

[1] = system: kras^G12D; mycOE; p53^−/− murine pancreatic cancer cells (KMP53); experiment: KMP53 cell assay (XTT cell viability with Etoposide); type: cell-based; conditions: Mus musculus, 4 h pre-treatment, then 300 nM Etoposide, 46 h
From the text: A selection of compounds was screened in a cellular assay system in two different cancer cell lines. Therefore, the cells were challenged with a generally non-cytotoxic concentration of Etoposid to induce DNA double strand breaks and the activation of the ATM pathway. The cells were further treated with different concentrations of the final compounds and viability of the cells was quantified using a standard XTT cell viability protocol. The principle of this assay lies in the fact that only alive and thus metabolically active cells are able to catalyze the reduction of XTT ((2,3-bis-(2-methoxy-4-nitro-5-sulfophenyl)-2H-tetrazolium-5-carboxanilide) by NADH from mitochondria, into formazan. The formazan product can be then detected using an absorbance-based microplate reader. The absorbance intensity measured in each well correlates to cell viability.
In brief, kras^G12D; mycOE; p53^−/− murine pancreatic cancer cells (KMP53) and Panc-1 human pancreatic ductal carcinoma cells were seeded in 96-well plates and left to attach overnight. The following day, cells were treated with serial dilutions of compound or DMSO in triplicates. The cells were first pre-treated for 4 hours with inhibitor and then 300 nM of Etoposide was added to each well. Cells were then grown under normal conditions (37° C., 95% air, 5% CO2) for 46 h. Following the incubation period, XTT solution was added to the cells containing 1 mg/ml XTT and 25 μM phenazine methosulfate (PMS) diluted in full culture medium. Cells were incubated in normal conditions for two more hours. For the determination of cell viability, absorbance at 450 nm was measured for each well. Absorbance values were then normalized to DMSO control and expressed as percentages of viability. Using software GraphPad Prism, the values were fitted in a nonlinear response curve and the IC50 values were calculated.

human ATM, sequence (Q13315 whole entry): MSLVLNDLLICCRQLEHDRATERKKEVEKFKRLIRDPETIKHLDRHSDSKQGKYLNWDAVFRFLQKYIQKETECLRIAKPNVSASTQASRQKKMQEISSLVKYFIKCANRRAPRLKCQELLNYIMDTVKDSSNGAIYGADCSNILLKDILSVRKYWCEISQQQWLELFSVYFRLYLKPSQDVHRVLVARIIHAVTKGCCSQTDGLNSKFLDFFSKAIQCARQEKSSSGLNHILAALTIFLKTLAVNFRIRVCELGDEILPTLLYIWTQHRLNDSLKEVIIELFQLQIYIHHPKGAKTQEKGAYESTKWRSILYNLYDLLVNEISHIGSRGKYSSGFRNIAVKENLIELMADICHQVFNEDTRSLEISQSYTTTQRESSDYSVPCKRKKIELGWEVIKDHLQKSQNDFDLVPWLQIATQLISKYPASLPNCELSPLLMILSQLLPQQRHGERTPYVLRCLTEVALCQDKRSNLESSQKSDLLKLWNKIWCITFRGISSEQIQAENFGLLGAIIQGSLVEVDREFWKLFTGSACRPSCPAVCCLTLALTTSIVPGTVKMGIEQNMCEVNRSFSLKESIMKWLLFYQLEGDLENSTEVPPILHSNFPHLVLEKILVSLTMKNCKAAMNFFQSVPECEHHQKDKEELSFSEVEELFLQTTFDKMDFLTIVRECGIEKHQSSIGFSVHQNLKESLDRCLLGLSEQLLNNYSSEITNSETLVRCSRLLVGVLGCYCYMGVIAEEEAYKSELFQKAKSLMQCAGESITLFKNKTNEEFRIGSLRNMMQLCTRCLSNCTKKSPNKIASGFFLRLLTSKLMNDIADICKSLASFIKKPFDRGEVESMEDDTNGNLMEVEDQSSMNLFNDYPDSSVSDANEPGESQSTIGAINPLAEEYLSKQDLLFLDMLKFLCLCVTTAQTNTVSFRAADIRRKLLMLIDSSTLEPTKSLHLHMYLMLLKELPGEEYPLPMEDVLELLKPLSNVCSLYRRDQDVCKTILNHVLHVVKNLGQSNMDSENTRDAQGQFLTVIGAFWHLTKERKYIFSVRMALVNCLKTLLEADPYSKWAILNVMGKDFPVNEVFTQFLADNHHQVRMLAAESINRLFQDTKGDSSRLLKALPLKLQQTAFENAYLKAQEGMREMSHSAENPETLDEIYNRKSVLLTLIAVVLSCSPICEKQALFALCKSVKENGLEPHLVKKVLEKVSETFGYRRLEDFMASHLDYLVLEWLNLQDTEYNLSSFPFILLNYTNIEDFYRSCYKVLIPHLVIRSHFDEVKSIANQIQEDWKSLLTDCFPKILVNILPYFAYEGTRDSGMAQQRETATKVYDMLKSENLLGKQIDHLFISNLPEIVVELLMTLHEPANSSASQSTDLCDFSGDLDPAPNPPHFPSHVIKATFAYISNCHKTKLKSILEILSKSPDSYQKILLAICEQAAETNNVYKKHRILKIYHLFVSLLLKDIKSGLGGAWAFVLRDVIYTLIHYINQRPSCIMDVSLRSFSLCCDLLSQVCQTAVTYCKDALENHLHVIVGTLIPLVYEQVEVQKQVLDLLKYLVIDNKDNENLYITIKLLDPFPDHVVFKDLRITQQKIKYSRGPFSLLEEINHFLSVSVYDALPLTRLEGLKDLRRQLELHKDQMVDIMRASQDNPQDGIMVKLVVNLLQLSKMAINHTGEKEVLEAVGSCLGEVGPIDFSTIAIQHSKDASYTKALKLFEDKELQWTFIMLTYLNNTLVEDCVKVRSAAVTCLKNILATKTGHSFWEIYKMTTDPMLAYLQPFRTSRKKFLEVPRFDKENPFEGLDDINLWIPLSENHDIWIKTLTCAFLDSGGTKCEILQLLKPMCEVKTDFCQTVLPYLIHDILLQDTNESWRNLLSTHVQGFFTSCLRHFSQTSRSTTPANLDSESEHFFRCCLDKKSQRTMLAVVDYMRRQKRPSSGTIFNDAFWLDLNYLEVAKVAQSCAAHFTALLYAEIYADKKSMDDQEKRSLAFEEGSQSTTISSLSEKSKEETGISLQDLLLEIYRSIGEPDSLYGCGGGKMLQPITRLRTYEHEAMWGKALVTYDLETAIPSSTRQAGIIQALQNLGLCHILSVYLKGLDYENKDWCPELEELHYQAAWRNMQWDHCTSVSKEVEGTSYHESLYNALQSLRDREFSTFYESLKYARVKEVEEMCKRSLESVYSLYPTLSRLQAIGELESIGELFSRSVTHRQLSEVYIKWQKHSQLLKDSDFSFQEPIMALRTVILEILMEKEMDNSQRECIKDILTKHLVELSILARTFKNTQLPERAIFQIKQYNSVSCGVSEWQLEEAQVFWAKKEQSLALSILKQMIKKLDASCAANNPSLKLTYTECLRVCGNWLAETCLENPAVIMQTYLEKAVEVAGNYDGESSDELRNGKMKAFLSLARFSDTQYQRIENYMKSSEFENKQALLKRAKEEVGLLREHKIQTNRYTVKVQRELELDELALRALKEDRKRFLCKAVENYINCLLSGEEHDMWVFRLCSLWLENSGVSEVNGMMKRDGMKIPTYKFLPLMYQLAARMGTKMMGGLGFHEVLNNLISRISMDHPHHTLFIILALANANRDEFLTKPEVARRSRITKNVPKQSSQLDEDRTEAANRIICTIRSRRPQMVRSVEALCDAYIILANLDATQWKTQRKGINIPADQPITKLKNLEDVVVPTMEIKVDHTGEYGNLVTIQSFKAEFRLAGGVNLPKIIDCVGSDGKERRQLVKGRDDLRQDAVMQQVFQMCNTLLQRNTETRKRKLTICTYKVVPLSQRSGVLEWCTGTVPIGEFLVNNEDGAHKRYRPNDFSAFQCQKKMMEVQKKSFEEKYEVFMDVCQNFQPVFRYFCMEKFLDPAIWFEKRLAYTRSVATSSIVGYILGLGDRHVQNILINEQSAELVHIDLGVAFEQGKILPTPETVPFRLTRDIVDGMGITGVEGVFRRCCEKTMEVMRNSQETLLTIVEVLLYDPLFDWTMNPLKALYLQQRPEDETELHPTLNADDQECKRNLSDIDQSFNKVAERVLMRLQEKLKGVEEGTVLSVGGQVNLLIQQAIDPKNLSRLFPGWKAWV

SMILES | IC50 (human ATM) [nM] | IC50 [1] [nM]
COCCn1c(-c2ccco2)nc2cnc3ccc(-c4ccc(OCCCN(C)C)nc4)cc3c21 [Ex. 6, 3-((5-(2-(Furan-2-yl)-1-(2-methoxyethyl)-1H-imidazo[4,5-c]quinolin-8-yl)pyridin-2-yl)oxy)-N,N-dimethylpropan-1-amine dimesylate] | < 1 | 3420
COCCn1c(=O)n(C)c2cnc3ccc(-c4ccc(NC(=O)N5CCN(C)CC5)cc4)cc3c21 [Ex. 20, N-(4-(1-(2-methoxyethyl)-3-methyl-2-oxo-2,3-dihydro-1H-imidazo[4,5-c]quinolin-8-yl)phenyl)-4-methylpiperazine-1-carboxamide] |  | 3800
COCCn1c(=O)n(C)c2cnc3ccc(-c4ccc(NC(=O)NCCN(C)C)cc4)cc3c21 [Ex. 11, 1-(2-(Dimethylamino)ethyl)-3-(4-(1-(2-methoxyethyl)-3-methyl-2-oxo-2,3-dihydro-1H-imidazo[4,5-c]quinolin-8-yl)phenyl)urea] | < 1 | 4000
COCCn1c(=O)n(C)c2cnc3ccc(-c4ccc(NC(=O)NCCN(C)C)c(C)c4F)cc3c21 [Ex. 48, 1-(2-(Dimethylamino)ethyl)-3-(3-fluoro-4-(1-(2-methoxyethyl)-3-methyl-2-oxo-2,3-dihydro-1H-imidazo[4,5-c]quinolin-8-yl)-2-methylphenyl)urea] |  | 7950
COCCn1c(=O)n(C)c2cnc3ccc(-c4ccc(NC(=O)N5CCC(NC(=O)OC(C)(C)C)CC5)cc4)cc3c21 [Ex. 13, tert-Butyl (1-((4-(1-(2-methoxyethyl)-3-methyl-2-oxo-2,3-dihydro-1H-imidazo[4,5-c]quinolin-8-yl)phenyl)carbamoyl)piperidin-4-yl)carbamate] | 2.3 | 
COCCn1c(=O)n(C)c2cnc3ccc(-c4ccc(NC(=O)NCCN5CC(F)C5)cc4)cc3c21 [Ex. 50, 1-(2-(3-Fluoroazetidin-1-yl)ethyl)-3-(4-(1-(2-methoxyethyl)-3-methyl-2-oxo-2,3-dihydro-1H-imidazo[4,5-c]quinolin-8-yl)phenyl)urea] | < 1 | 8040
CN1CCN(C(=O)Nc2ccc(-c3ccc4ncc5c(c4c3)n(C3CCOCC3)c(=O)n5C)cn2)CC1 [Ex. 8, 4-Methyl-N-(5-(3-methyl-2-oxo-1-(tetrahydro-2H-pyran-4-yl)-2,3-dihydro-1H-imidazo[4,5-c]quinolin-8-yl)pyridin-2-yl)piperazine-1-carboxamide] | 2 | 410
COCCn1c(=O)n(C)c2cnc3ccc(-c4ccc(NC(=O)NCCN(C)C)c(F)c4F)cc3c21 [Ex. 46, 1-(2,3-Difluoro-4-(1-(2-methoxyethyl)-3-methyl-2-oxo-2,3-dihydro-1H-imidazo[4,5-c]quinolin-8-yl)phenyl)-3-(2-(dimethylamino)ethyl)urea] | 3 | 8940
CN(C)CCCOc1ccc(-c2ccc3ncc4ncn(C5CCOCC5)c4c3c2)cn1 [Ex. 1, N,N-Dimethyl-3-((5-(1-(tetrahydro-2H-pyran-4-yl)-1H-imidazo[4,5-c]quinolin-8-yl)pyridin-2-yl)oxy)propan-1-amine] | 2.3 | 6900
COCCn1c(=O)n(C)c2cnc3ccc(-c4ccc(NC(=O)NC5CCN(C)CC5)cc4)cc3c21 [Ex. 18, 1-(4-(1-(2-Methoxyethyl)-3-methyl-2-oxo-2,3-dihydro-1H-imidazo[4,5-c]quinolin-8-yl)phenyl)-3-(1-methylpiperidin-4-yl)urea] | 4 | 
COCCn1c(=O)n(C)c2cnc3ccc(-c4ccc(NC(=O)NCCN5CCC5)cc4)cc3c21 [Ex. 49, 1-(2-(Azetidin-1-yl)ethyl)-3-(4-(1-(2-methoxyethyl)-3-methyl-2-oxo-2,3-dihydro-1H-imidazo[4,5-c]quinolin-8-yl)phenyl)urea] | < 1 | 
COCCn1c(=O)n(C)c2cnc3ccc(-c4ccc(NC(=O)N5CCC(N(C)C)C5)cc4)cc3c21 (centres unmarked) [Ex. 25, 3-(Dimethylamino)-N-(4-(1-(2-methoxyethyl)-3-methyl-2-oxo-2,3-dihydro-1H-imidazo[4,5-c]quinolin-8-yl)phenyl)pyrrolidine-1-carboxamide] | 7 | 
COCCn1c(=O)n(C)c2cnc3ccc(-c4ccc(NC(=O)NC5CCN(C(=O)OC(C)(C)C)CC5)cc4)cc3c21 [Ex. 15, tert-Butyl 4-(3-(4-(1-(2-methoxyethyl)-3-methyl-2-oxo-2,3-dihydro-1H-imidazo[4,5-c]quinolin-8-yl)phenyl)ureido)piperidine-1-carboxylate] | < 1 | 
Cc1nc2cnc3ccc(-c4ccc(OCCCN(C)C)nc4)cc3c2n1C1CCOCC1 [Ex. 2, N,N-Dimethyl-3-((5-(2-methyl-1-(tetrahydro-2H-pyran-4-yl)-1H-imidazo[4,5-c]quinolin-8-yl)pyridin-2-yl)oxy)propan-1-amine] | 2.9 | 8100
CN(C)CCNC(=O)Nc1ccc(-c2ccc3ncc4c(c3c2)n(C2CCOCC2)c(=O)n4C)cc1 [Ex. 10, 1-(2-(Dimethylamino)ethyl)-3-(4-(3-methyl-2-oxo-1-(tetrahydro-2H-pyran-4-yl)-2,3-dihydro-1H-imidazo[4,5-c]quinolin-8-yl)phenyl)urea] | < 1 | 1450
CN(C)CCCOc1ccc(-c2ccc3ncc4nc(-c5ccccc5)n(C5CCOCC5)c4c3c2)cn1 [Ex. 4, N,N-Dimethyl-3-((5-(2-phenyl-1-(tetrahydro-2H-pyran-4-yl)-1H-imidazo[4,5-c]quinolin-8-yl)pyridin-2-yl)oxy)propan-1-amine] | 3.7 | 2100
COCCn1cnc2cnc3ccc(-c4ccc(OCCCN(C)C)nc4)cc3c21 [Ex. 5, 3-((5-(1-(2-Methoxyethyl)-1H-imidazo[4,5-c]quinolin-8-yl)pyridin-2-yl)oxy)-N,N-dimethylpropan-1-amine] | 3.3 | 3400
COCCn1c(=O)n(C)c2cnc3ccc(-c4ccc(NC(=O)NC(C)CN(C)C)cc4)cc3c21 (racemic) [Ex. 52, (RS)-1-(1-(Dimethylamino)propan-2-yl)-3-(4-(1-(2-methoxyethyl)-3-methyl-2-oxo-2,3-dihydro-1H-imidazo[4,5-c]quinolin-8-yl)phenyl)urea] | < 1 | 5470
CN(C)CCCOc1ccc(-c2ccc3ncc4nc(-c5ccco5)n(C5CCOCC5)c4c3c2)cn1 [Ex. 3, 3-((5-(2-(Furan-2-yl)-1-(tetrahydro-2H-pyran-4-yl)-1H-imidazo[4,5-c]quinolin-8-yl)pyridin-2-yl)oxy)-N,N-dimethylpropan-1-amine] | < 1 | 7500
COCCn1c(=O)n(C)c2cnc3ccc(-c4ccc(NC(=O)NC5CN(C)C5)cc4)cc3c21 [Ex. 21, 1-(4-(1-(2-Methoxyethyl)-3-methyl-2-oxo-2,3-dihydro-1H-imidazo[4,5-c]quinolin-8-yl)phenyl)-3-(1-methylazetidin-3-yl)urea] | < 1 | 
COCCn1c(=O)n(C)c2cnc3ccc(-c4ccc(OCCCN(C)C)nc4)cc3c21 [Ex. 9, 8-(6-(3-(Dimethylamino)propoxy)43uinolin-3-yl)-1-(2-methoxyethyl)-3-methyl-1,3-dihydro-2H-imidazo[4,5-c]43uinoline-2-one] | < 1 | 1580
COCCn1c(=O)n(C)c2cnc3ccc(-c4ccc(NC(=O)N5CC(N(C)C)C5)cc4)cc3c21 [Ex. 26, 3-(Dimethylamino)-N-(4-(1-(2-methoxyethyl)-3-methyl-2-oxo-2,3-dihydro-1H-imidazo[4,5-c]58uinoline-8-yl)phenyl)azetidine-1-carboxamide] | 4 | 
